Key:
Format in all cases: in vivo
[1] = test system: Green Setaria viridis; test: Comparison experiment (post-emergence) against racemate / S configuration; settings: for Results of comparison experiment (16DAA), weed control: Setaria viridis (4 leaf)
[2] = test system: Abutilon theophrasti; test: as above; settings: Abutilon theophrasti (3.5 leaf), 16DAA
[3] = test system: Leptochloa chinensis; test: as above; settings: Leptochloa chinensis (4.5 leaf), 16DAA
[4] = test system: Digitaria sanguinalis; test: as above; settings: Digitaria sanguinalis (3.5 leaf), 16DAA
[5] = test system: Descurainia sophia; test: Comparison experiment (post-emergence, Table 7); settings: Descurainia sophia (12 leaf)
Source text: (§1) If there is no clear marker, the post-seedling test conditions are the same as above, and the experimental results are shown in Tables 4-7.

[6] = test system: Sinapis arvensis; test: Comparison experiment (post-emergence, Table 7); settings: Sinapis arvensis (3.5 leaf)
Source text: as §1

[7] = test system: Galium aparine; test: Comparison experiment (post-emergence, Table 7); settings: Galium aparine (5 branches)
Source text: as §1

[8] = test system: Capsella bursa-pastoris; test: Comparison experiment (post-emergence, Table 7); settings: Capsella bursa-pastoris (10-11 leaf)
Source text: as §1

[9] = test system: Veronica didyma; test: Comparison experiment (post-emergence, Table 7); settings: Veronica didyma (2 branches)
Source text: as §1

[10] = test system: Malachium aquaticum; test: Comparison experiment (post-emergence, Table 7); settings: Malachium aquaticum (2 branches)
Source text: as §1

[11] = test system: Echinochloa crusgali; test: Comparison experiment (post-emergence, Table 7); settings: Echinochloa crusgali (3 leaf)
Source text: as §1

[12] = test system: Amaranthus retroflexus; test: Comparison experiment (post-emergence, Table 7); settings: Amaranthus retroflexus (6 leaf)
Source text: as §1

[13] = test system: Corn-Zhengdan 958; test: Comparison experiment (post-emergence, Table 7), crop safety on corn; settings: Corn-Zhengdan 958 (3.5 leaf)
Source text: as §1

[14] = test system: Digitaria sanguinalis; test: Comparison experiment (post-emergence) against racemate / S configuration; settings: Digitaria sanguinalis, post-emergence, Table 6, post-seedling test conditions
Source text: (§2) The above growth control rates are fresh weight control rates.
(§3) Experiment on weeding effect in post-emergence stage: monocotyledonous and dicotyledonous weed seeds (Descurainia sophia, Capsella bursa-pastoris, Galium aparine, Stellaria media, Lithospermum arvense, Rorippa indica, Alopecurus aequalis, Beckmannia syzigachne, Sclerochloa dura, Phleum paniculatum, Bromus japonicus, Aegilops tauschii, Phalaris arundinacea, Amaranthus retroflexus, Chenopodiaceae, Commelina communis, Sonchus arvensis, convolvulus arvensis, Cirsium setosum, Solanum nigrum, Acalypha australis, Digitaria sanguinalis, Echinochloa crusgalli, Setaria viridis, Setaria glauca, Leptochloa chinensis, Monochoria vaginalis, Sagittaria trifolia, Scirpus juncoides, Cyperus rotundus, Cyperus iria, Cyperus difformis, Fimbristylis, Portulaca oleracea, Xanthium sibiricum, Pharbitis nil) and major crop seeds (wheat, corn, rice, soybean, cotton, oilseed rape, millet, sorghum, potato, sesame, ricinus) were placed in plastic pots filled with soil, then covered with 0.5-2 cm of soil, allowed to grow in a good greenhouse environment. After 2 weeks of sowing, the test plants were treated in the 2 leaf stage. The tested compounds of the present invention were respectively dissolved in acetone, then added with Tween 80 and 1.5 liter/ha of emulsifiable concentrate of methyl oleate as synergist, diluted with a certain amount of water to obtain a solution with a certain concentration, and sprayed with a spray tower onto the plants. After the application, the plants were cultured for 15 days in the greenhouse, and then the experimental results of the weeding were counted. The doses of the used compounds were 500, 250, 125, 60, 30, 15 g/ha, and the averages were obtained by repeating for three times.
as §1

[15] = test system: Alopecurus japonicas; test: as above; settings: Table 6, post-seedling test conditions
Source text: as §2, §3, §1

CC[S@@+]([O-])c1c(C(F)(F)F)ccc(C(=O)Nc2nnc(C)o2)c1SC [Compound 548]
60%: Results of comparison experiment (16DAA), weed control ([4]; 12 g/ha) | Results of comparison experiment (16DAA), weed control ([6]; 24 g/ha) | Results of comparison experiment (16DAA), weed control ([12]; 12 g/ha)
40%: Results of comparison experiment (16DAA), weed control ([1]; 6 g/ha) | Results of comparison experiment (16DAA), weed control ([2]; 6 g/ha) | Results of comparison experiment (16DAA), weed control ([4]; 3 g/ha) | Results of comparison experiment (16DAA), weed control ([4]; 6 g/ha) | Results of comparison experiment (16DAA), weed control ([6]; 6 g/ha) | Results of comparison experiment (16DAA), weed control ([12]; 6 g/ha)
30%: Results of comparison experiment (16DAA), weed control ([2]; 3 g/ha) | Results of comparison experiment (16DAA), weed control ([6]; 3 g/ha) | Results of comparison experiment (16DAA), weed control ([7]; 48 g/ha) | Results of comparison experiment (16DAA), weed control ([8]; 6 g/ha) | Results of comparison experiment (16DAA), weed control ([10]; 3 g/ha) | Results of comparison experiment (16DAA), weed control ([12]; 3 g/ha)
100%: Results of comparison experiment, Green Setaria viridis (30 g/ha) ([1]; 30 g/ha, Table 6, post-seedling test conditions) | Results of comparison experiment (16DAA), weed control ([1]; 24 g/ha) | Results of comparison experiment (16DAA), weed control ([1]; 48 g/ha) | Results of comparison experiment (16DAA), weed control ([2]; 48 g/ha) | Results of comparison experiment (16DAA), weed control ([4]; 48 g/ha) | Results of comparison experiment (16DAA), weed control ([5]; 24 g/ha) | Results of comparison experiment (16DAA), weed control ([5]; 48 g/ha) | Results of comparison experiment (16DAA), weed control ([8]; 48 g/ha) | Results of comparison experiment (16DAA), weed control ([10]; 24 g/ha) | Results of comparison experiment (16DAA), weed control ([10]; 48 g/ha) | Results of comparison experiment (16DAA), weed control ([11]; 48 g/ha) | Results of comparison experiment (16DAA), weed control ([12]; 48 g/ha) | pest or weed control at 30 g/ha [14]
20%: Results of comparison experiment (16DAA), weed control ([1]; 3 g/ha) | Results of comparison experiment (16DAA), weed control ([3]; 6 g/ha) | Results of comparison experiment (16DAA), weed control ([7]; 12 g/ha) | Results of comparison experiment (16DAA), weed control ([7]; 24 g/ha) | Results of comparison experiment (16DAA), weed control ([9]; 6 g/ha) | Results of comparison experiment (16DAA), weed control ([9]; 12 g/ha)
10%: Results of comparison experiment (16DAA), weed control ([7]; 3 g/ha) | Results of comparison experiment (16DAA), weed control ([7]; 6 g/ha) | Results of comparison experiment (16DAA), weed control ([8]; 3 g/ha) | Results of comparison experiment (16DAA), weed control ([9]; 3 g/ha)
50%: Results of comparison experiment (16DAA), weed control ([2]; 12 g/ha) | Results of comparison experiment (16DAA), weed control ([3]; 12 g/ha) | Results of comparison experiment (16DAA), weed control ([5]; 3 g/ha) | Results of comparison experiment (16DAA), weed control ([6]; 12 g/ha) | Results of comparison experiment (16DAA), weed control ([8]; 12 g/ha) | Results of comparison experiment (16DAA), weed control ([9]; 24 g/ha) | Results of comparison experiment (16DAA), weed control ([10]; 6 g/ha) | Results of comparison experiment (16DAA), weed control ([11]; 3 g/ha) | Results of comparison experiment (16DAA), weed control ([11]; 6 g/ha) | Results of comparison experiment, Alopecurus japonicas (120 g/ha) [15]
70%: Results of comparison experiment (16DAA), weed control ([2]; 24 g/ha) | Results of comparison experiment (16DAA), weed control ([3]; 24 g/ha) | Results of comparison experiment (16DAA), weed control ([5]; 6 g/ha) | Results of comparison experiment (16DAA), weed control ([8]; 24 g/ha) | Results of comparison experiment (16DAA), weed control ([9]; 48 g/ha) | Results of comparison experiment (16DAA), weed control ([10]; 12 g/ha) | Results of comparison experiment (16DAA), weed control ([11]; 12 g/ha)
80%: Results of comparison experiment (16DAA), weed control ([1]; 12 g/ha) | Results of comparison experiment (16DAA), weed control ([3]; 48 g/ha) | Results of comparison experiment (16DAA), weed control ([4]; 24 g/ha) | Results of comparison experiment (16DAA), weed control ([5]; 12 g/ha) | Results of comparison experiment (16DAA), weed control ([6]; 48 g/ha) | Results of comparison experiment (16DAA), weed control ([11]; 24 g/ha) | Results of comparison experiment (16DAA), weed control ([12]; 24 g/ha)
0%: Results of comparison experiment (16DAA), weed control ([3]; 3 g/ha) | Results of comparison experiment (16DAA), crop damage ([13]; 3 g/ha) | Results of comparison experiment (16DAA), crop damage ([13]; 6 g/ha) | Results of comparison experiment (16DAA), crop damage ([13]; 12 g/ha) | Results of comparison experiment (16DAA), crop damage ([13]; 24 g/ha) | Results of comparison experiment (16DAA), crop damage ([13]; 48 g/ha)
